Measured values from patent US5434133A, “CNP analog peptides and their use” (Suntory Limited, priority 1991, dated 1995).
“Also recorded” adds a separate entry of the source. Where a SMILES comes first, the peptide text is derived from it. Bridges are numbered along the chain shown (N, C = ends). Where no end group is shown, it is not given here.

Assays:
[1] = test system: cultured vascular smooth muscle cells (VSMC) derived from the aortas of rats; conditions: Furuya et al. 1990; cited from earlier work
[2] = test system: cultured vascular smooth muscle cells (VSMC) derived from the aortas of rats; test: Cell growth suppressing activity: [3H] thymidine uptake (DNA synthesis inhibition) in VSMC; type: cell-based, rat; conditions: for intensity of DNA synthesis / cell growth suppressing action relative to α-hANP: rat VSMC, compared with α-hANP; for % Inhibition of 3H-thymidine uptake: 0.1 μm of each peptide, BSMC line stimulated with PDGF (20 ng/ml)
Experimental: 1-2: Measurement of Cell Growth Suppressing Activity
Cell growth suppressing activity was evaluated in accordance with the method of Kariya et al. (Atherosclerosis, 80, 143-147, 1990) by measuring the uptake of [^3 H] thymidine into cells as an indicator of percent DNA synthesis inhibition using the above-identified VSMC. Cells tuned to a stationary phase were incubated at 37° C. for 14 h with each sample added in the presence of 1% serum or 20 ng/ml of PDGF (platelet derived growth factor). Then, following the addition of 37 kBq/ml of [^3 H] thymidine, the incubation was continued for another 4 h and the radioactivity of [^3 H] thymidine incorporated into the cells was measured. The values of measurement were such that the uptake of [^3 H] thymidine for the case where only 1% serum or PDGF was added in the absence of peptide was taken as 100%, with the percent suppression due to the peptide addition being accordingly calculated.

[3] = test system: cultured vascular smooth muscle cells (VSMC) derived from the aortas of rats; test: cGMP producing activity in cultured VSMC (cGMP radioimmunoassay); type: cell-based, rat; conditions: for cGMP producing activity (in words): rat VSMC, comparison with CNP-22 or α-hANP; for cGMP producing activity (% increase for 1 μm): specific activity compared to 1 μm α-hANP (2000 fmol/400000 cells) = 100, peptide at 1 μm
Experimental: 1-1: Measurement of CGMP Producing Activity
The above-mentioned activity of compounds synthesized according to the present invention was measured by the methods of Hirata et al. (Biochem. Biophys. Res. Commun., 128, 538, 1985) and Scarborough et al. (J. Biol. Chem., 261, 12960, 1986). The cells used were cultured vascular smooth muscle cells (hereunder abbreviated as VSMC) derived from the aortas of rats. From 10^-9 to 10^-6 M of α-hANP or a 20 peptide of interest was incubated together with VSMC and the amount cGMP produced was measured by cGMP radioimmunoassay. Percent maximum reactivity for each peptide, with the value of maximum reactivity for α-hANP being taken as 100%, was used as an indicator of activity.

Compound | increase of intracellular cGMP level in VSMC compared with ANP or BNP [1] | intensity of DNA synthesis / cell growth suppressing action relative to α-hANP [2] | cGMP producing activity (in words) [3] | cGMP producing activity (% increase for 1 μm) [3] | % Inhibition of 3H-thymidine uptake [2] | suppression of DNA synthesis of rat VSMC (in words) ([2]; FIGS. 2, 3 and 4)
CNP: C-type natriuretic peptide, named generically in the text (GLSKGCFGLKLDRIGSMSGLGC; disulfide 6-22 (inferred); ends not checked; UniProt P23582 105-126, looked up) [reference compound] | several times as much | 10 times | – | – | – | –
CC[C@H](C)[C@@H]1NC(=O)[C@H](CCCNC(=N)N)NC(=O)[C@H](CC(=O)O)NC(=O)[C@H](CC(C)C)NC(=O)[C@H](CCCCN)NC(=O)CNC(=O)CNC(=O)[C@H](Cc2ccccc2)NC(=O)[C@@H](NC(=O)CNC(=O)[C@H](CCCCN)NC(=O)[C@H](CO)NC(=O)[C@H](CC(C)C)NC(=O)CN)CSSC[C@@H](C(=O)O)NC(=O)CNC(=O)[C@H](CC(C)C)NC(=O)CNC(=O)[C@H](CO)NC(=O)[C@H](CCSC)NC(=O)[C@H](CO)NC(=O)CNC1=O [Compound 6] (H-GLSKGCFGGKLDRIGSMSGLGC-OH; disulfide 6-22) | – | – | lower activity than CNP-22 (but higher than that of α-hANP); also recorded: lower in cGMP producing activity than the other one- and two-residue substituted derivatives | 344% | 49% | –
CC[C@H](C)[C@@H]1NC(=O)[C@H](CCCNC(=N)N)NC(=O)[C@H](CC(=O)O)NC(=O)[C@H](CCSC)NC(=O)[C@H](CCCNC(=N)N)NC(=O)CNC(=O)CNC(=O)[C@H](Cc2ccccc2)NC(=O)[C@@H](NC(=O)CNC(=O)[C@H](CCCCN)NC(=O)[C@H](CO)NC(=O)[C@H](CC(C)C)NC(=O)CN)CSSC[C@@H](C(=O)N[C@@H](CC(N)=O)C(=O)N[C@@H](CO)C(=O)N[C@@H](Cc2ccccc2)C(=O)N[C@@H](CCCNC(=N)N)C(=O)N[C@@H](Cc2ccc(O)cc2)C(=O)O)NC(=O)[C@H](CCC(=O)O)NC(=O)[C@H](CC(C)C)NC(=O)[C@H](CCC(=O)O)NC(=O)[C@H](CO)NC(=O)[C@H](CCC(N)=O)NC(=O)[C@H](C)NC(=O)CNC1=O [Compound 2, H-Gly-Leu-Ser-Lys-Gly-Cys-Phe-Gly-Gly-Arg-Met-Asp-Arg-Ile-Gly-Ala-Gln-Ser- Glu-Leu-Glu-Cys-Asn-Ser-Phe-Arg-Tyr-OH] (H-GLSKGCFGGRMDRIGAQSELECNSFRY-OH; disulfide 6-22) | – | – | only a weak cGMP producing activity at a level comparable to α-hANP | 147% | 38% | –
CC[C@H](C)[C@@H]1NC(=O)[C@H](CCCNC(=N)N)NC(=O)[C@H](CC(=O)O)NC(=O)[C@H](CCSC)NC(=O)[C@H](CCCNC(=N)N)NC(=O)CNC(=O)CNC(=O)[C@H](Cc2ccccc2)NC(=O)[C@@H](NC(=O)CNC(=O)[C@H](CCCCN)NC(=O)[C@H](CO)NC(=O)[C@H](CC(C)C)NC(=O)CN)CSSC[C@@H](C(=O)O)NC(=O)CNC(=O)[C@H](CC(C)C)NC(=O)CNC(=O)[C@H](CO)NC(=O)[C@H](CCSC)NC(=O)[C@H](CO)NC(=O)CNC1=O [Compound 14] (H-GLSKGCFGGRMDRIGSMSGLGC-OH; disulfide 6-22) | – | – | marked drop in activity | 23% | 17% | –
hCNP-53: human CNP-53, CNP-22 with 31 amino acid residues attached to the N-terminus (DLRVDTKSRAAWARLLQEHPNARKYKGANKKGLSKGCFGLKLDRIGSMSGLGC; disulfide 37-53 (inferred); ends not checked; UniProt P23582 74-126, looked up) [reference compound] | – | 10 times | – | 458% | 71% | suppress the DNA synthesis of rat VSMC in a dose-dependent manner
